Test results published in patent US9828375B2, “4-position substituted pyrazolopyrimidine derivative, and use thereof in drug preparation” (Guangxi Wuzhou Pharmaceuticals (Group) Co., Ltd., priority 2012, dated 2017).

Target: T1, FLT3 (Homo sapiens, UniProt P36888)
T1 sequence (P36888 27-993): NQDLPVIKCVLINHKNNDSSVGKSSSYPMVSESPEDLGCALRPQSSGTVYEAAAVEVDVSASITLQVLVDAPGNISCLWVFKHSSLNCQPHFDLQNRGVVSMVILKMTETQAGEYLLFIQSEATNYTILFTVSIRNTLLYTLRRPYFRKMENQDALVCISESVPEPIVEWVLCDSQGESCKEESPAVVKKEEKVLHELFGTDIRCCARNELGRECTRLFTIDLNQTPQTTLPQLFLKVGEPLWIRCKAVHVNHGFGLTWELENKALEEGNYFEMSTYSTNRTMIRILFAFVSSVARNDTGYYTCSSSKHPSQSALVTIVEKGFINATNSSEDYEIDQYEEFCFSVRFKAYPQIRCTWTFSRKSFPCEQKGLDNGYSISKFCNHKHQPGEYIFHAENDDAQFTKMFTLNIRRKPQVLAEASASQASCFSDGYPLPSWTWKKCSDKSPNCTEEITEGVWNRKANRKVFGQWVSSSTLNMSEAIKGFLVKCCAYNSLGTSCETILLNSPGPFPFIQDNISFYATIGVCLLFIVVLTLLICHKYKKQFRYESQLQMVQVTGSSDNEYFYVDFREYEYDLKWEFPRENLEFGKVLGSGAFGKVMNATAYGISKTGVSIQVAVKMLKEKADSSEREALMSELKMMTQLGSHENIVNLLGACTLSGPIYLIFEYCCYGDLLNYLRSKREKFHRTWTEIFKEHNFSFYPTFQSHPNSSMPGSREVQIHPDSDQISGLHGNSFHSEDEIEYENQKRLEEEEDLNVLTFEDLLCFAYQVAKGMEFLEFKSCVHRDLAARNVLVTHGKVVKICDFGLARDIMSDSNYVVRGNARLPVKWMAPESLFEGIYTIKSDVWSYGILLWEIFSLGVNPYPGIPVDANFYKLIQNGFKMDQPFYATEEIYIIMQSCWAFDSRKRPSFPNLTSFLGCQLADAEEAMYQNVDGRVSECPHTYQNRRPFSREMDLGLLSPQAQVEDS
Assay: Kinase inhibition activity test, isotope labeling (γ-33P-ATP): FLT3
Assay type: biochemical
Conditions: for IC50: ATP 200 μM, read-out: FLT3 IC50 value (inhibitory activity value); for Activity inhibition rate Flt3 (h) / inhibition at 10 µM: test compound at a concentration of 10 μM; for inhibition at 10 µM: read-out: Activity inhibition rate Flt3 (h)
Procedure: The purpose of this experiment was to test the inhibitory activity of the compound of the invention for in vitro kinase with the isotope labeling method (the γ phosphate group on ATP was labeled). In this experiment, the in vitro activity inhibition of such kinases as FLT3, VEGFR2, FLT1, FLT4, RET, c-RAF, B-RAF, c-KIT, PDGFα, PDGFβ, FGFR2, FGFR1, EphA2, EphB2, SRC, ABL, ALK and Met was tested respectively. Staurosporine was reference molecule (or referred to as positive control). The kinase inhibition activity of the test compound was expressed by half-inhibitory concentration (IC50) or the kinase activity inhibition rate of the test compound at a concentration of 10 μM. The IC50 value could be obtained by calculating the kinase activity inhibition rate of the test compound at different concentrations.
20 mM 3-(N-morpholinyl)propanesulfonic acid (MOPS); 1 mM ethylenediaminetetraacetic acid (EDTA), 0.01% Brij 35 (Brij-35), 5% glycerol, 0.1% mercaptoethanol, 1 mg/mL bovine serum albumin (BSA), 10 mM manganous dichloride solution (MnCl2), 0.1 mg/mL glutamic acid/tyrosine (4:1) polypeptide (poly(Glu, Tyr)4:1), 50 μM EAIYAAPFAKKK (substrate of FLT3), 0.33 mg/mL myelin basic protein (substrate of VEGFR2), 250 μM KKKSPGEYVNIEFG (substrate of FLT1(h)), 500 μM GGEEEEYFELVKKKK (substrate of FLT4(h)), 250 μM KKKSPGEYVNIEFG (substrate of RET), 0.66 mg/mL myelin basic protein (substrate of C-RAF), 250 μM GGMEDIYFEFMGGKKK (substrate of c-Kit), 250 μM GGMEDIYFEFMGGKKK (substrate of PDGFα), 250 μM KKKSPGEYVNIEFG (substrate of FGFR1), […] GGEEEEYFELVKKKK (substrate of SRC), 50 μM EAIYAAPFAKKK (substrate of ABL), 250 μM KKKSPGEYVNIEFG (substrate of ALK), 250 μM KKKSPGEYVNIEFG (substrate of Met(h)), 10 mM magnesium acetate and γ-^33 P-ATP solution, stop buffer (3% phosphate buffer), washing buffer (75 mM phosphate solution), methanol, Filtermat A membrane, FLT3, VEGFR2, FLT3, VEGFR2, FLT1, FLT4, RET, c-RAF, B-RAF, c-KIT, PDGFRα, PDGFRβ, FGFR2, FGFR1, EphA2, EphB2, SRC, ABL, ALK, Met and other kinases, and the test compounds.
Buffers (8 mM MOPS with pH value of 7.0, 0.2 mM EDTA and 10 mM MnCl2), (5-10 mU) kinases to be tested (FLT3, VEGFR2, FLT1, FLT4, RET, c-RAF, B-RAF, c-KIT, PDGFRα, PDGFRβ, FGFR2, FGFR1, EphA2, EphB2, SRC, ABL, ALK and Met), substrates of kinases to be tested (refer to experimental materials), 10 mM magnesium acetate and γ-^33 P-ATP solution, and test compounds at different concentrations were added to a reaction tube orderly. […] Reaction was terminated with 5 μL 3% phosphate buffer finally, and 10 μL reaction solution was titrated to the Filtermat A membrane; solution was washed for 3 times with 75 mM phosphate solution with each time lasting 5 minutes, and then washed once with methanol. Finally, the Filtermat A membrane was dried, and scintillation counting was performed on the membrane, with scintillation count reflecting the phosphorylation degree of the substrates, so that the activity inhibition of kinase could be characterized.

Q: With `CC(C)c1cccc(NC(=O)Nc2ccc(Oc3ncnc4[nH]ncc34)c(F)c2)c1` [4a-7, 1-(4-((1H-pyrazolopyrimidine-4-yl)oxy)-3-fluorophenyl)-3-(3-isopropylphenyl)urea] as the molecule, how does the IC50 read?
A: Its IC50 is 36 nM.

Q: And the “Activity inhibition rate Flt3 (h)” value?
A: The value was 100%.

Q: How did the inhibition at 10 µM turn out when `CC(C)n1ncc2c(Oc3ccc(NC(=O)Nc4cc(C(C)(C)C)on4)cc3)ncnc21` [5a-4, 1-(5-tert-butylisoxazol-3-yl)-3-(4-(1-isopropyl-(1H-pyrazolopyrimidine-4-yl)oxy)phenyl)urea] was run?
A: The inhibition at 10 µM was > 90%.

Q: How did the “Activity inhibition rate Flt3 (h)” value turn out when `CC(C)(C)c1cc(NC(=O)Nc2ccc(Sc3ncnc4[nH]ncc34)cc2)no1` [4c-3, 1-(4-(1H-pyrazolopyrimidine-4-sulfydryl)phenyl)-3-(5-tert-butylisoxazol-3-yl)urea] was run?
A: Its value is >90%.

Q: With `O=C(Nc1ccc(Oc2ncnc3[nH]ncc23)cc1)Nc1ccc(Cl)c(C(F)(F)F)c1` [4a-2] as the molecule, how does the IC50 read?
A: The IC50 was 39 nM.

Q: What about the “Activity inhibition rate Flt3 (h)” value of the same molecule?
A: Its value is 100%.

Q: How did the IC50 turn out when `O=C(Nc1ccccc1)Nc1ccc(Oc2ncnc3[nH]ncc23)cc1` [4a-15, 1-(4-((1H-pyrazolopyrimidine-4-yl)oxy)phenyl)-3-phenylurea] was run?
A: Its IC50 is 89 nM.

Q: What about the “Activity inhibition rate Flt3 (h)” value of the same molecule?
A: Its value is 100%.

Q: Which results are given for `O=C(Nc1ccc(Oc2ncnc3[nH]ncc23)cc1)Nc1cccc(C(F)(F)F)c1` [4a-6]?
A: IC50: 9 nM; inhibition at 10 µM: 100%

Q: With `C[C@H](NC(=O)Nc1ccc(Oc2ncnc3[nH]ncc23)cc1)c1ccccc1` [4a-18, (S)-1-(4-((1H-pyrazolopyrimidine-4-yl)oxy)phenyl)-3-(1-phenethyl)urea] as the molecule, how does the “Activity inhibition rate Flt3 (h)” value read?
A: The value was 81%.

Q: What does the source list for `O=C(Nc1ccc(Oc2ncnc3[nH]ncc23)cc1)Nc1ccc(C(F)(F)F)cc1Cl` [4a-13]?
A: IC50: 24 nM; Activity inhibition rate Flt3 (h): 100%

Q: For `C[C@@H](NC(=O)Nc1ccc(Nc2ncnc3[nH]ncc23)cc1)c1ccccc1` [4b-2, (R)-1-(4-(1H-pyrazolopyrimidine-4-amido)phenyl)-3-(1-phenethyl)urea], which “Activity inhibition rate Flt3 (h)” value (10 µM) is on record?
A: Its value is 0%.

Q: Which IC50 does the source give for `O=C(Nc1ccc(Oc2ncnc3[nH]ncc23)cc1)Nc1ccc(C(F)(F)F)cc1` [4a-1] here?
A: The IC50 was 27 nM.

Q: And the inhibition at 10 µM?
A: Its inhibition at 10 µM is 100%.

Q: With `O=C(Nc1ccc(Sc2ncnc3[nH]ncc23)cc1)Nc1ccc(C(F)(F)F)cc1` [4c-1] as the molecule, how does the inhibition at 10 µM read?
A: The inhibition at 10 µM was > 90%.

Q: Which IC50 does the source give for `O=C(Nc1ccc(Oc2ncnc3[nH]ncc23)c(F)c1)Nc1ccc(Cl)c(C(F)(F)F)c1` [4a-10, 1-(4-((1H-pyrazolopyrimidine-4-yl)oxy)-3-fluorophenyl)-3-(4-chloro-3-(trifluoromethyl)phenyl)urea] here?
A: Its IC50 is 25 nM.

Q: And the “Activity inhibition rate Flt3 (h)” value?
A: The value was 100%.

Q: Which results are given for “1-(4-((1H-pyrazolopyrimidine-4-yl)oxy)-3-fluorophenyl)-3-(3-trifluoromethoxy)phenyl)urea [4a-8]”?
A: IC50: 38 nM; Activity inhibition rate Flt3 (h): 100%

Q: With `C[C@H](NC(=O)Nc1ccc(Nc2ncnc3[nH]ncc23)cc1)c1ccccc1` [4b-4] as the molecule, how does the “Activity inhibition rate Flt3 (h)” value (10 µM) read?
A: Its value is 59%.

Q: For `CC(C)(C)c1cc(NC(=O)Nc2ccc(Oc3ncnc4[nH]ncc34)cc2)on1` [4a-25], which IC50 is on record?
A: Its IC50 is 16 nM.

Q: And the “Activity inhibition rate Flt3 (h)” value?
A: Its value is 100%.

Q: Which IC50 does the source give for `CC(C)(C)c1cc(NC(=O)Nc2ccc(Oc3ncnc4[nH]ncc34)c(F)c2)no1` [4a-31] here?
A: Its IC50 is 5 nM.

Q: What about the “Activity inhibition rate Flt3 (h)” value of the same molecule?
A: Its value is 100%.

Q: How did the inhibition at 10 µM turn out when `COc1ccc(NC(=O)Nc2ccc(NC(=O)N3C=NC=C4NNC=C43)cc2)cc1` [4b-6, 1-(4-(1H-pyrazolopyrimidine-4-amido)phenyl)-3-(4-methoxyphenyl)urea] was run?
A: The inhibition at 10 µM was 81%.

Q: With `O=C(Nc1ccc(Sc2ncnc3[nH]ncc23)cc1)Nc1cccc(C(F)(F)F)c1` [4c-2] as the molecule, how does the “Activity inhibition rate Flt3 (h)” value read?
A: The value was >90%.

Q: `O=C(Nc1ccc(Oc2ncnc3[nH]ncc23)cc1)Nc1ccc(N2CCOCC2)cc1` [4a-16, 1-(4-((1H-pyrazolopyrimidine-4-yl)oxy)phenyl)-3-(4-morpholinylphenyl)urea] was tested. Which inhibition at 10 µM did it give?
A: Its inhibition at 10 µM is 76%.

Q: `O=C(Nc1ccc(Oc2ncnc3[nH]ncc23)cc1)Nc1cc(C(F)(F)F)on1` [4a-28] was tested. Which inhibition at 10 µM did it give?
A: The inhibition at 10 µM was 100%.

Q: What does the source list for `O=C(Nc1ccc(C(F)(F)F)cc1)Nc1ccc(Oc2ncnc3[nH]ncc23)c(F)c1` [4a-9, 1-(4-((1H-pyrazolopyrimidine-4-yl)oxy)-3-fluorophenyl)-3-(4-(trifluoromethyl)phenyl)urea]?
A: IC50: 18 nM; Activity inhibition rate Flt3 (h): 100%

Q: Which inhibition at 10 µM does the source give for `COc1cccc(NC(=O)Nc2ccc(Nc3ncnc4[nH]ncc34)cc2)c1` [4b-3] here?
A: Its inhibition at 10 µM is 72%.

Q: `Cc1cc(C)c(NC(=O)Nc2ccc(NC(=O)N3C=NC=C4NNC=C43)cc2)c(C)c1` [4b-7, 1-(4-(1H-pyrazolopyrimidine-4-amido)phenyl)-3-(2,4,6-trimethylphenyl)urea] was tested. Which inhibition at 10 µM did it give?
A: The inhibition at 10 µM was 91%.

Q: For “1-(4-((1H-pyrazolopyrimidine-4-yl)oxy)phenyl)-3-(methylcyclohexyl)urea [4a-20]”, which “Activity inhibition rate Flt3 (h)” value is on record?
A: The value was 66%.

Q: With `O=C(Nc1ccc(Oc2ncnc3[nH]ncc23)cc1)Nc1cc(C(F)(F)F)cc(C(F)(F)F)c1` [4a-12, 1-(4-((1H-pyrazolopyrimidine-4-yl)oxy)phenyl)-3-(3,5-bis(trifluoromethyl)phenyl)urea] as the molecule, how does the IC50 read?
A: Its IC50 is 61 nM.

Q: What about the “Activity inhibition rate Flt3 (h)” value of the same molecule?
A: The value was 100%.

Q: For `C[C@@H](NC(=O)Nc1ccc(Oc2ncnc3[nH]ncc23)cc1)c1ccccc1` [4a-19, (R)-1-(4-((1H-pyrazolopyrimidine-4-yl)oxy)phenyl)-3-(1-phenethyl)urea], which “Activity inhibition rate Flt3 (h)” value is on record?
A: Its value is 73%.

Q: For `O=C(Nc1ccc(NC(=O)N2C=NC=C3NNC=C32)cc1)Nc1ccc(Cl)c(C(F)(F)F)c1` [4b-5, 1-(4-(1H-pyrazolopyrimidine-4-amido)phenyl)-3-(4-chloro-3-(trifluoromethyl)phenyl)urea], which inhibition at 10 µM is on record?
A: The inhibition at 10 µM was 95%.

Q: Which results are given for `CC(C)(C)c1cc(NC(=O)Nc2ccc(Oc3ncnc4[nH]ncc34)cc2)n(-c2ccccc2)n1` [4a-24]?
A: IC50: 17 nM; Activity inhibition rate Flt3 (h): 100%

Q: For `O=C(Nc1cccc(Nc2ncnc3[nH]ncc23)c1)Nc1ccc(F)c(Cl)c1` [4b-1], which inhibition at 10 µM is on record?
A: The inhibition at 10 µM was 30%.

Q: What does the source list for `CC(C)(C)c1cc(NC(=O)Nc2ccc(Oc3ncnc4[nH]ncc34)cc2)no1` [4a-26]?
A: IC50: 8 nM; inhibition at 10 µM: 100%
